Measured values taken from patent US7897582B2, “Oligonucleotide compositions and methods for the modulation of the expression of B7 protein” (Isis Pharmaceuticals, Inc., priority 2003, dated 2011).
Strand notation (5' to 3'): a small letter for the sugar, then the base; units joined by * are phosphorothioate-linked, units joined directly phosphodiester-linked; [ ] holds rarer units or linkages, { } end groups; capitals alone tell only the bases. e = 2'-O-(2-methoxyethyl) (MOE); d = 2'-deoxy (DNA)

Legend:
B7-1 mRNA = assay: Mouse B7-1 target mRNA reduction in L-929 fibroblasts (RT-PCR); format: cell-based; conditions: 100 nM
Description: Both of these oligonucleotides are phosphorothioates with 2′-MOE modifications on nucleotides 1-5 and 16-20, and 2′-deoxy at positions 6-15. These ASOs were identified by mouse-targeted ASO screening by target mRNA reduction in mouse cell lines. For B7-2, 19 mouse-targeted ASOs were screened by target mRNA reduction (Northern analysis) in IC-21 macrophages. Dose-response confirmation led to selection of ISIS 121874 (>70% reduction at 25 nM). For B7-1, 22 mouse-targeted ASOs were screened by target mRNA reduction (RT-PCR) in L-929 fibroblasts. Dose-response confirmation led to selection of ISIS 121844 (>70% reduction at 100 nM). No cross hybridization was predicted, and no cross-target reduction was detected in transfected cells.

B7.1 mRNA = B7.1 mRNA in lung and draining lymph nodes of ovalbumin-challenged mice, quantitative RT-PCR; format: in vivo, mouse; conditions: lung tissue and draining lymph nodes of allergen-challenged mice
Description: (§1) RNA was harvested from experimental lungs removed on day 28 of the OVA protocol. B7.2 and B7.1 levels were measured by quantitative RT-PCR using the Applied Biosystems PRISM 7700 Sequence Detection System (Applied Biosystems, Foster City, Calif.). Primers and probes used for these studies were synthesized by Operon Technologies (Alameda, Calif.).

[1] = system: ovalbumin-challenged Balb/c mice; assay: Ovalbumin-induced mouse model of allergic inflammation (Penh, BAL cells, histology, cytokines, spleen); format: in vivo
Description: In the mouse model of allergic inflammation, mice were sensitized and challenged with aerosolized chicken ovalbumin (OVA). Airway responsiveness was assessed by inducing airflow obstruction with a methacholine aerosol using a noninvasive method. This methodology utilized unrestrained conscious mice that are placed into the main chamber of a plthysmograph (Buxco Electronics, Inc., Troy, N.Y.). Pressure differences between this chamber and a reference chamber were used to extrapolate minute volume, breathing frequency and enhanced pause (Penh). Penh is a dimensionless parameter that is a function of total pulmonary airflow in mice (i.e., the sum of the airflow in the upper and lower respiratory tracts) during the respiratory cycle of the animal. The lower the Penh, the greater the airflow. This parameter closely correlates with lung resistance as measured by traditional invasive techniques using ventilated animals (Hamelmann . . . Gelfand, 1997). Dose-response data were plotted as raw Penh values to increasing concentrations of methacholine. […]
Female Balb/c mice (Charles Rivers Laboratory, Taconic Farms, N.Y.) were maintained in micro-isolator cages housed in a specific pathogen-free (SPF) facility. […] Animals were analyzed about 24 hours following the last nebulization using the Buxco electronics Biosystem. Lung function (Penh), lung histology (cell infiltration and mucus production), target mRNA reduction in the lung, inflammation (BAL cell type & number, cytokine levels), spleen weight and serum AST/ALT were determined. […]
Cytospins of cells recovered from BAL fluid were prepared using a Shandon Cytospin 3 (Shandon Scientific LTD, Cheshire, England). […] Total cell counts were quantified by hemocytometer and, together with the percent type by differential, were used to calculate specific cell number.
Before resection, lungs were inflated with 0.5 ml of 10% phosphate-buffered formalin and fixed overnight at 4° C. […] Parasagittal sections were analyzed by bright-field microscopy. Mucus cell content was assessed as the airway epithelium staining with PAS. […]

B7.2 mRNA = B7.2 mRNA in lung and draining lymph nodes of ovalbumin-challenged mice, quantitative RT-PCR; format: in vivo, mouse
Description: as §1

CD4+ T cells = assay: T cell proliferation assay, [3H]thymidine incorporation, oligonucleotide-treated APCs plus CD4+ T cells; format: cell-based, human; conditions: APCs treated before cytokine induction; FIG. 7
Description: The ability of ISIS 2302 and ISIS 10373 to inhibit T cell proliferation was evaluated as follows. Monocytes treated with oligonucleotide and cytokines (as in Example 6) were used as antigen presenting cells in a T cell proliferation assay. The differentiated monocytes were combined with CD4+ T cells from a separate donor. After 48 hours, proliferation was measured by [^3H]thymidine incorporation.
For T cell proliferation assays, cells were isolated from EDTA-treated whole blood as described above, except that a faster migrating band containing the lymphocytes was harvested from just below the interface. Cells were washed as described in Example 6 after which erythrocytes were removed by NH4Cl lysis. T cells were purified using a T cell enrichment column (R&D Systems, Minneapolis, Minn.) essentially according to the manufacturer's directions. CD4+ T cells were further enriched from the entire T cell population by depletion of CD8+ cells with anti-CD8-conjugated magnetic beads (AMAC, Inc., Westbrook, Me.) according to the manufacturer's directions. T cells were determined to be >80% CD4+ by flow cytometry using Cy-chrome-conjugated anti-CD4 mAb (PharMingen, San Diego, Calif.).
Antigen presenting cells (APCs) were isolated as described in Example 6 and treated with mitomycin C (25 μg/mL) for 1 hour then washed 3 times with PBS. APCs (10^5 cells) were then combined with 4×10^4 CD4+ T cells in 350 μL of culture media. Where indicated, purified CD3 mAb was also added at a concentration of 1 μg/mL. During the last 6 hours of the 48 hour incubation period, proliferation was measured by determining uptake of 1.5 μCi of [^3H]-thymidine per well. The cells were harvested onto filters and the radioactivity measured by scintillation counting.

ICAM-1 = ICAM-1 expression in antigen presenting cells, flow cytometry; format: cell-based, human; conditions: dose of 1 μM
Description: (§2) Monocytes were cultured and treated with oligonucleotides as follows. For dendritic cells, EDTA-treated blood was layered onto Polymorphprep™ (1.113 g/mL; Nycomed, Oslo, Norway) and sedimented at 500×g for 30 minutes at 20° C. Mononuclear cells were harvested from the interface. Cells were washed with PBS, with serum-free RPMI media (Moore et al., N.Y. J. Med., 1968, 68, 2054) and then with RPMI containing 5% fetal bovine serum (FBS). Monocytes were selected by adherence to plastic cell culture cell culture dishes for 1 h at 37° C. After adherence, cells were treated with oligonucleotides in serum-free RPMI containing Lipofectin™ (8 μg/mL). After 4 hours, the cells were washed. Then RPMI containing 5% FBS and oligonucleotide was added to cells along with interleukin-4 (IL-4; R&D Systems, Minneapolis, Minn.) (66 ng/mL) and granulocyte-macrophage colony-stimulating factor (GM-CSF; R&D Systems, Minneapolis, Minn.) (66 ng/mL) to stimulate differentiation (Romani et al., J. Exp. Med., 1994, 180, 83, 1994). Cells were incubated for 48 hours, after which cell surface expression of various molecules was measured by flow cytometry.
(§3) Mononuclear cells isolated from fresh blood were treated with oligonucleotide in the presence of cationic lipid to promote cellular uptake. […] Expression of B7-2 protein was measured by flow cytometry according to the methods of Example 2. […]

human B7-2 = assay: Cell surface expression of B7-2 in transfected COS-7 cells by flow cytometry; format: cell-based; conditions: FIG. 5
Method in brief: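 COS-7 cells transfected with B7-2 plasmid (calcium phosphate), then treated with antisense oligonucleotides with 15 μg/mL Lipofectin for 4 h, followed by oligonucleotide in DMEM/10% FCS. After 24-48 h, cells stained with FITC- or PE-conjugated anti-CD86 for 30 min at 4 °C and analysed by flow cytometry.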

B7-2 = B7-2 expression in antigen presenting cells (blood monocytes with IL-4 and GM-CSF), flow cytometry; format: cell-based, human; conditions: FIG. 6
Description: The ability of ISIS 10373 to inhibit expression from the native B7-2 gene in antigen presenting cells (APCs) was evaluated as follows.
as §2, with “Then RPMI containing 5% FBS and oligonucleotide was added to cells along with interleukin-4 (IL-4; R&D Systems, Minneapolis, Minn.) (66 ng/mL) and granulocyte-macrophage colony-stimulating factor (GM-CSF; R&D Systems, Minneapolis, Minn.) (66 ng/mL) to stimulate differentiation (Romani et al., J. Exp. Med., 1994, 180, 83, 1994).” left out
as §3

HLA-DR = HLA-DR cell surface expression in antigen presenting cells, flow cytometry; format: cell-based, human
Description: as §2, §3

human B7-1 = assay: Cell surface expression of B7-1 in pcB7-1-transfected COS-7 cells by flow cytometry; format: cell-based; conditions: FIG. 5
Description: The ability of oligonucleotides to inhibit B7-1 expression was evaluated by measuring the cell surface expression of B7-1 in transfected COS-7 cells by flow cytometry.
A T-175 flask was seeded at 75% confluency with COS-7 cells (ATCC accession No. CRL 1651). The plasmid pcB7-1 was introduced into cells by standard calcium phosphate transfection. Following a 4 hour transfection, the cells were trypsinized and seeded in 12-well dishes at 80% confluency. The cells were allowed to adhere to the plastic for 1 hour and were then washed with phosphate-buffered saline (PBS). OptiMEM™ (GIBCO-BRL, Gaithersburg, Md.) medium was added along with 15 μg/mL of Lipofectin™ (GIBCO-BRL, Gaithersburg, Md.) and oligonucleotide at the indicated concentrations. After four additional hours, the cells were washed with phosphate buffered saline (PBS) and incubated with fresh oligonucleotide at the same concentration in DMEM (Dulbecco et al., Virol., 1959, 8, 396; Smith et al., Virol., 1960, 12, 185) with 10% fetal calf sera (FCS).
In order to monitor the effects of oligonucleotides on cell surface expression of B7-1, treated COS-7 cells were harvested by brief trypsinization 24-48 hours after oligonucleotide treatment. The cells were washed with PBS, then resuspended in 100 μL of staining buffer (PBS, 0.2% BSA, 0.1% azide) with 5 μL conjugated anti-B7-1-antibody (i.e., anti-hCD80-FITC, Ancell, Bayport, Minn.; FITC: fluorescein isothiocyanate). The cells were stained for 30 minutes at 4° C., washed with PBS, resuspended in 300 μL containing 0.5% paraformaldehyde. Cells were harvested and the fluorescence profiles were determined using a flow cytometer.
B7 antisense oligonucleotides were tested for their effect on cell surface expression of both B7-1 and B7-2. Cell surface expression was measured as described in Example 1. Experiments were done for both human B7 and mouse B7.
The oligonucleotides were screened as described in Example 2 except that the concentration of oligonucleotide was varied as shown in Table 18.

CD3 = CD3 cell surface expression in antigen presenting cells, flow cytometry; format: cell-based, human
Description: as §2, §3

B7-1 = B7-1 cell surface expression in antigen presenting cells, flow cytometry; format: cell-based, human
Description: as §2, §3

[2] = mouse, in vivo
Description: Antisense oligonucleotides (ASOs) were dissolved in saline and used to intratracheally dose mice every day, four times per day, from days 15-26 of the OVA sensitization and challenge protocol. Specifically, the mice were anesthetized with isofluorane and placed on a board with the front teeth hung from a line. The nose was covered and the animal's tongue was extended with forceps and […] of various doses of ASO, or an equivalent volume of saline (control) was placed at the back of the tongue until inhaled into the lung.

ISIS 121844: antisense oligonucleotide targeted to mouse B7.1; SEQ ID NO: 286; phosphorothioate, 2′-MOE on nucleotides 1-5 and 16-20 (antisense GCTCAGCCTTTCCACTTCAG; sugars from the 5' end e5 d10 e5, all phosphorothioate, methylation of C not given here)
target mRNA reduction (B7-1 mRNA): > 70% | B7.1 mRNA (B7.1 mRNA): reduced | allergen-induced airway eosinophilia ([1]; BAL fluid): reduced | airway response to methacholine (Penh response) ([1]; intratracheal ASO, days 15-26): no effect | PMN numbers in BAL fluid ([1]; mouse, in vivo): reduced | reduction of B7.2 mRNA in the lung (B7.2 mRNA; lung): 80% | B7.2 mRNA (B7.2 mRNA; lung tissue and draining lymph nodes of allergen-challenged mice): reduced

ISIS 10373: phosphorothioate 20-mer to human B7-2 mRNA 0011-0030; 5′-UTR; SEQ ID NO: 16 (antisense dT*dG*dC*dG*dA*dG*dC*dT*dC*dC*dC*dC*dG*dT*dA*dC*dC*dT*dC*dC)
T cell proliferative response (CD4+ T cells): blocked | effect on ICAM-1 expression (ICAM-1): only a slight effect | effect on B7-2 expression (specificity) (human B7-2): inhibits B7-2 expression | IC50 (B7-2): ~250 nM | cell surface expression of HLA-DR (HLA-DR): did not affect | effect on B7-1 expression (specificity) (human B7-1): little or no effect | cell surface expression of CD3 (CD3): did not affect | cell surface expression of B7-1 (B7-1): did not affect

5′-TCCGTCATCGCTCCTCAGGG-3′ [ISIS 13920]
deposition pattern in the lung [2]: taken up throughout the lung, most strongly by antigen presenting cells (APCs) and alveolar epithelium
